Test results: patent US20080070938A1, “Medicinal composition for mitigating blood lipid or lowering blood homocysteine” (SANKYO COMPANY, LIMITED, priority 2002, published 2008)

Key:
Male Beagle dogs [1] = test: Test Example 1: serum lipids (total cholesterol, LDL, triglyceride) after 11 days of oral dosing; type: in vivo; conditions: oral once daily, Pyridoxine hydrochloride 50 mg/Kg, relative value, pre-treatment average = 100, mean of 5 dogs
Description: Pravastatin sodium manufactured at Sankyo Co., Ltd. was used. Simvastatin and atorvastatin synthesized at Chemtech Labo., Inc. were used.
The administration period was 11 days.
Approximately 10 mL of blood was collected from the cephalic vein of each dog on -14 and -7 day (the 1st and the 2nd week prior to administration) as well as 4, 8, and 12 days after administration.
The collected blood was placed in a test tube and allowed to stand at room temperature for 30 min to 1 hour. Then the blood was centrifuged (approximately 1,600 g, for 10 min) and the resultant serum obtained was used for assays.
Total cholesterol content was assayed by enzymatic assay method, while HDL, LDL, and triglyceride were determined by homogeneous method, chemically modified method, and enzymatic techniques, respectively. Clinical Laboratory System (TBA-120FR, Toshiba Medical Systems Corporation) was used in all of these determinations.
Relative values of various levels of serum lipids in animals treated with each dose of pyridoxine hydrochloride, pravastatin sodium, simvastatin, or atorvastatin calcium alone as well as the medicinal compositions described above were calculated against each converted average value calculated from that determined 2 weeks and 1 week before the treatment into 100.

Male Beagle dogs [2] = test: Test Example 2: blood homocysteine levels (HPLC) after 11 days of oral dosing; conditions: oral once daily, relative value, pre-treatment average = 100, mean of 5 dogs
Description: The required amount of the test substance calculated based on the body weight of the test animals was weighed and put in gelatin capsules (TORPAC Inc., ½ oz). After filling up, the capsules were placed in a box divided up for every animal and stored under freezing until use.
The capsules filled up with the test substance were orally administered to the test animals once daily via an oral gavage between 9:00-12:30. The test animals were fasted for 2-3 hrs prior to each administration. The administration period was 11 days.
Approximately 10 mL of blood was collected from the cephalic vein of each dog on -14 and -7 day (the 1st and the 2nd week prior to administration) as well as 4, 8, and 12 days after administration. The animals were fasted for approximately 18 hrs before collection of the blood.
Blood homocysteine levels were determined by HPLC method used conventionally in current clinical examination.
Relative values of blood homocysteine levels in animals treated with each dose of atorvastatin calcium or pyridoxine hydrochloride alone as well as the medicinal compositions of atorvastatin calcium plus pyridoxine hydrochloride were calculated against each converted average value calculated from that determined 2 weeks and 1 week before the treatment into 100.
The values indicate average results calculated from 5 dogs per a group.

[3] = tested on: patients with cardiovascular diseases; conditions: 6 successive weeks; patients with cardiovascular diseases (3 atorvastatin, 4 simvastatin); cited from earlier work
patients = conditions: treated for one year; 20,705 patients; placebo control group 1.9% decrease; cited from earlier work
[4] = 4 Days after treatment, Atorvastatin calcium 2 mg/Kg
[5] = 8 Days after treatment, Atorvastatin calcium 2 mg/Kg
[6] = 12 Days after treatment, Atorvastatin calcium 2 mg/Kg
[7] = 4 Days after treatment, Atorvastatin calcium 2 mg/Kg and/or Pyridoxine hydrochloride 5 mg/Kg
[8] = 8 Days after treatment, Atorvastatin calcium 2 mg/Kg and/or Pyridoxine hydrochloride 5 mg/Kg
[9] = 12 Days after treatment, Atorvastatin calcium 2 mg/Kg and/or Pyridoxine hydrochloride 5 mg/Kg
[10] = 4 Days after treatment, Pravastatin sodium 2 mg/Kg
[11] = 8 Days after treatment, Pravastatin sodium 2 mg/Kg
[12] = 12 Days after treatment, Pravastatin sodium 2 mg/Kg
[13] = 4 Days after treatment, Simvastatin 1 mg/Kg
[14] = 8 Days after treatment, Simvastatin 1 mg/Kg
[15] = 12 Days after treatment, Simvastatin 1 mg/Kg

| SMILES | Percent changes of blood LDL levels (Male Beagle dogs [1]; [4]) | Percent changes of blood triglyceride levels (Male Beagle dogs [1]; [4]) | Percent changes of blood LDL levels (Male Beagle dogs [1]; [5]) | Percent changes of blood triglyceride levels (Male Beagle dogs [1]; [5]) | Percent changes of blood LDL levels (Male Beagle dogs [1]; [6]) | Percent changes of blood triglyceride levels (Male Beagle dogs [1]; [6]) | Percent changes of blood homocysteine levels (Male Beagle dogs [2]; [7]) | Percent changes of blood homocysteine levels (Male Beagle dogs [2]; [8]) | Percent changes of blood homocysteine levels (Male Beagle dogs [2]; [9]) | Percent changes of blood LDL levels (Male Beagle dogs [1]; [10]) | Percent changes of blood LDL levels (Male Beagle dogs [1]; [11]) | Percent changes of blood LDL levels (Male Beagle dogs [1]; [12]) | Percent changes of blood LDL levels (Male Beagle dogs [1]; [13]) | Percent changes of blood total cholesterol levels (Male Beagle dogs [1]; [13]) | Percent changes of blood triglyceride levels (Male Beagle dogs [1]; [13]) | Percent changes of blood LDL levels (Male Beagle dogs [1]; [14]) | Percent changes of blood total cholesterol levels (Male Beagle dogs [1]; [14]) | Percent changes of blood triglyceride levels (Male Beagle dogs [1]; [14]) | Percent changes of blood LDL levels (Male Beagle dogs [1]; [15]) | Percent changes of blood total cholesterol levels (Male Beagle dogs [1]; [15]) | further results |
| --- | --- | --- | --- | --- | --- | --- | --- | --- | --- | --- | --- | --- | --- | --- | --- | --- | --- | --- | --- | --- | --- |
| CC(C)c1c(C(=O)Nc2ccccc2)c(-c2ccccc2)c(-c2ccc(F)cc2)n1CC[C@H](O)C[C@@H](O)CC(=O)O [Atorvastatin calcium, (3R,5S)-7-[2-(4-fluorophenyl)-5-(1-methylethyl)-3-phenyl-4-phenylaminocarbonyl-1H-pyrrol-1-yl]-3,5-dihydroxyheptanoic acid] | 82.4% | 77.2% | 82.1% | 86.3% | 83.6% | 86.4% | 107.2% | 106.3% | 106.9% | – | – | – | – | – | – | – | – | – | – | – | – |
| CC[C@H](C)C(=O)O[C@H]1C[C@H](O)C=C2C=C[C@H](C)[C@H](CC[C@@H](O)C[C@@H](O)CC(=O)O)[C@H]21 [Pravastatin sodium, (+)-(3R,5R)-3,5-dihydroxy-7-[(1S,2S,6S,8S,8aR)-6-hydroxy-2-methyl-8-[(S)-2-methylbutyryloxy]-1,2,6,7,8,8a-hexahydro-1-naphtyl]heptanoic acid] | – | – | – | – | – | – | – | – | – | 92.6% | 91.6% | 90.4% | – | – | – | – | – | – | – | – | – |
| Cc1ncc(CO)c(CO)c1O.Cl [Pyridoxine hydrochloride] | 101.7% | 83.8% | 95.0% | 86.7% | 91.4% | 81.2% | 100.0% | 116.0% | 109.8% | 101.7% | 95.0% | 91.4% | 101.7% | 98.0% | 83.8% | 95.0% | 93.3% | 86.7% | 91.4% | 90.5% | Percent changes of blood triglyceride levels (Male Beagle dogs [1]; [15]): 81.2%; Percent changes of blood homocysteine levels (Male Beagle dogs [2]; 4 Days after treatment, Pyridoxine hydrochloride 50 mg/Kg alone or with Atorvastatin calcium 2 mg/Kg): 101.4%; Percent changes of blood homocysteine levels (Male Beagle dogs [2]; 8 Days after treatment, Pyridoxine hydrochloride 50 mg/Kg alone or with Atorvastatin calcium 2 mg/Kg): 111.5%; Percent changes of blood homocysteine levels (Male Beagle dogs [2]; 12 Days after treatment, Pyridoxine hydrochloride 50 mg/Kg alone or with Atorvastatin calcium 2 mg/Kg): 103.0% |
| CCC(C)(C)C(=O)O[C@H]1C[C@@H](C)C=C2C=C[C@H](C)[C@H](CC[C@@H]3C[C@@H](O)CC(=O)O3)[C@H]21 [Simvastatin, (+)-(1S,3R,7S,8S,8aR)-1,2,3,7,8,8a-hexahydro-3,7-dimethyl-8-[2-[(2R,4R)-tetrahydro-4-hydroxy-6-oxo-2H-pyran-2-yl]ethyl]-1-naphthyl 2,2-dimethylbutyrate] | – | – | – | – | – | – | – | – | – | – | – | – | 83.9% | 94.8% | 66.4% | 90.4% | 94.1% | 85.3% | 81.3% | 92.4% | Percent changes of blood triglyceride levels (Male Beagle dogs [1]; [15]): 82.0%; blood homocysteine levels (in words) [3]: decreased |
| CC(C)c1c(C(=O)Nc2ccccc2)c(-c2ccccc2)c(-c2ccc(F)cc2)n1CC[C@H](O)C[C@@H](O)CC(=O)O [atorvastatin, (3R,5S)-7-[2-(4-fluorophenyl)-5-(1-methylethyl)-3-phenyl-4-phenylaminocarbonyl-1H-pyrrol-1-yl]-3,5-dihydroxyheptanoic acid] | – | – | – | – | – | – | – | – | – | – | – | – | – | – | – | – | – | – | – | – | blood homocysteine levels (in words) [3]: increased |
| CC[C@H](C)C(=O)O[C@H]1C[C@@H](C)C=C2C=C[C@H](C)[C@H](CC[C@@H]3C[C@@H](O)CC(=O)O3)[C@H]21 [lovastatin, (+)-(1S,3R,7S,8S,8aR)-1,2,3,7,8,8a-hexahydro-3,7-dimethyl-8-[2-[(2R,4R)-tetrahydro-4-hydroxy-6-oxo-2H-pyran-2-yl]ethyl]-1-naphth yl(S)-2-methylbutyrate] | – | – | – | – | – | – | – | – | – | – | – | – | – | – | – | – | – | – | – | – | decrease of blood homocysteine levels on average (patients): 3.7% |
